Reference: ChEMBL document CHEMBL1201862, “PubChem BioAssay data set” (2004)
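48-hour exposure; five concentrations; linearly interpolated endpoints. GI50: concentration for 50% inhibition of growth.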 Calls of active or inactive are those of the source. No stated cut-off is given here; in the data, active = GI50 up to about 1.1 µM and inactive = higher.

How the values were obtained:
Assay in all cases: NCI anticancer screen, dose series, 48 h
[1] = tested on: KM-20L2
[2] = tested on: LXFL 529
[3] = tested on: XF498
[4] = tested on: M19-MEL
[5] = tested on: DMS-273
[6] = tested on: RXF 631
[7] = tested on: SNB-78
[8] = tested on: DMS-114
[9] = tested on: HOP-18

Measured: GI50

c1ccc2c(c1)Cc1c(Cc3csc4ccccc34)ccc3cccc-2c13
inactive: [1] > 100 µM | [2] > 100 µM | [3] > 100 µM | [4] > 100 µM | [5] > 100 µM | [6] > 100 µM | [7] 94.4 µM | [8] > 100 µM

CN(C)CCn1c2c3ccccc3ccc2c2oc(=O)c3ccccc3c21
inactive: [1] 7.08 µM | [2] 4.98 µM | [3] 15.3 µM | [4] 5.46 µM | [6] 4.53 µM | [9] 16.1 µM | [7] 19.7 µM

CC(C)CC(CNC(Cc1ccc(Cl)cc1)C(N)=O)NC(=O)C(Cc1c[nH]cn1)NC(=O)CNC(=O)C(NC(=O)C(C)NC(=O)C(Cc1c[nH]c2ccccc12)NC(=O)C(CCC(=O)O)NC(=O)C(N)Cc1ccccc1)C(C)C (stereo not drawn)
inactive: [1] > 133 µM | [2] > 133 µM | [3] > 133 µM | [4] > 133 µM | [5] > 133 µM | [6] > 133 µM | [7] > 133 µM | [8] 119 µM

CN(CCCN1C(=O)c2cccc3cc([N+](=O)[O-])cc(c23)C1=O)CCN(C)CCCN1C(=O)c2cccc3cc([N+](=O)[O-])cc(c23)C1=O
inactive: [1] > 39.3 µM | [2] 2.45 µM | [3] > 39.3 µM | [4] 18.2 µM | [5] 11.4 µM | [6] > 39.3 µM | [9] > 39.3 µM | [7] > 39.3 µM | [8] 33.6 µM

CCCc1n[nH]c(CCC(=O)N(Cc2ccccc2)Cc2ccccc2)c1CC
inactive: [1] > 100 µM | [2] > 100 µM | [3] > 100 µM | [4] > 100 µM | [5] > 100 µM | [6] > 100 µM | [9] > 100 µM | [8] > 100 µM

NC(N)NCCCc1cn2c(n1)C1CCCN1C(=O)C2Cc1ccccc1 (stereo not drawn)
inactive: [1] > 100 µM | [2] > 100 µM | [3] > 100 µM | [4] > 100 µM | [5] > 100 µM | [6] > 100 µM | [7] > 100 µM | [8] > 100 µM

O=CN1CCN(C=S)CC1
inactive: [1] > 100 µM | [2] > 100 µM | [3] > 100 µM | [4] > 100 µM | [5] > 100 µM | [6] > 100 µM | [7] > 100 µM | [8] > 100 µM

Cc1ccc2c(c1)SC(c1cc3c(cc1Br)OCO3)S2 (stereo not drawn)
inactive: [1] 26.1 µM | [2] > 31.6 µM | [3] > 100 µM | [4] 28.6 µM | [5] 20 µM | [6] > 10 µM | [9] > 31.6 µM | [7] > 31.6 µM | [8] 15.8 µM

COC(=O)[C@@H]1C(=O)O[C@@H](c2cc(OC)c(OC)cc2OC)[C@@H]1C(=O)OC.COC(=O)[C@H]1C(=O)O[C@@H](c2cc(OC)c(OC)cc2OC)[C@@H]1C(=O)OC
inactive: [1] > 100 µM | [2] > 100 µM | [3] > 100 µM | [4] > 100 µM | [5] > 100 µM | [6] > 100 µM | [7] > 100 µM | [8] > 100 µM
